Reference: patent US12187758B2 (ROME Therapeutics, Inc., priority 2022, dated 2025)

Tests used:
Type in all cases: cell-based
THP1-Dual KO-TREX1 cells = assay: THP1 TREX1 KO inhibition assay (type 1 interferon response); conditions: Homo sapiens, 144 h, type 1 interferon (QUANTI-LUC), 1 μM 5-aza-2′-deoxycytidine, six days
Protocol: Exemplary compounds were tested for their ability to alter the type 1 interferon response in THP1 Dual TREX1 KG cells treated with 5-aza-2′-deoxycytidine. Assay procedures and results are described below.
THP1 Dual TREX1 KG cells were purchased from Invivogen. The THP1-Dual™ KO-TREX1 cells were cultured in RPMI 1640, 10% heat-inactivated fetal bovine serum, 25 mM HEPES, 10 μg/mL blasticidin, and 100 μg/mL zeocin. THP1-Dual™ KO-TREX1 cells were treated with a dose titration of a test compound alone or in the presence of 1 μM 5-aza-2′-deoxycytidine (Sigma-Aldrich, cat #189825). Type 1 Interferon and cell viability were assessed after six days of treatment.
Stock solution of the test compound was prepared in DMSO followed by a three-fold dilution in DMSO. Additional 50× dilution was prepared in cell culture media for each dilution. 10 μL of diluted test compound was then added to a 96-well plate.
THP1-Dual™ KO-TREX1 cells were treated with either 1×PBS or 1 μM 5-aza-2′-deoxycytidine. […] of the THP1-Dual™ KO-TREX1 cells from either treatment were added to each well of the 96-well plate containing the test compound titration at 50,000 cells/well. Cells were incubated at 37° C., 5% CO2 in a humidified incubator for six days. Cells treated with 1 μM 5-aza-2′-deoxycytidine were added at the same density as above and incubated at 37° C., 5% CO2 in a humidified incubator for six days. On day six, 25 μL of cell supernatant was transferred to a 96-well white-walled plate, followed by addition to each well of 50 μL of QUANTI-LUC solution containing stabilizer. Luminescence was detected on a plate reader according to the manufacturer's instructions.
The remaining cells were assessed for cell viability by adding 25 μL of CellTiter-Glo (Promega, G9683) solution to each well, and being placed on a shaker for 10 minutes at room temperature. Luminescence was detected on a plate reader, according to the manufacturer's instructions.
In the tables “A” represents values≤0.050 μM; “B” represents values from >0.050 μM to ≤0.100 μM; “C” represents values from >0.100 μM to ≤0.250 μM; “D” represents values from >0.250 μM to ≤1 μM; “E” represents values>1 μM; and “NT”=not tested: […]

[1] = test system: SDH-A (succinate dehydrogenase-A); assay: Mitochondria toxicity assay with PC3 cells, in-cell ELISA SDH-A; conditions: 5 days treatment
Protocol: (§1) Exemplary compounds were tested for inhibition of expression of mitochondria DNA encoded proteins COX-1 […]. SDH-A (succinate dehydrogenase-A) is a control mitochondria protein encoded by nuclear DNA. Reduction in COX-1 expression indicates off target inhibition of mitochondria DNA synthesis which leads to mitochondrial toxicity. Assay procedures and results are described below.
(§2) PC3 cells were purchased from ATCC and cultured in F-12 Kaighn's modified medium (Hyclone), 10% heat-inactivated fetal bovine serum (Invitrogen), 1% Penicillin-Streptomycin (Invitrogen). PC3 cells were treated with a dose titration of a test compound on 96 well plates for 5 days at 37° C., 5% CO2 in a humidified incubator. The treatment plates are duplicated, one for in-cell ELISA for mitochondria proteins and one for cytotoxicity.
(§3) In-cell ELISA was performed to measure mitochondrial proteins using MitoBiogenesis In-Cell ELISA kit (Abcam) per manufacturer's instruction. The medium was aspirated from the compound treated cells, 100 μl per well of 4% paraformaldehyde (Solarbio) was added and cells were incubated at room temperature for 20 minutes. The cells were washed three times with PBS. 100 μl of 0.5% acetic acid was added per cell, and the cells were incubate at room temperature for 5 minutes. Cells were washed once with PBS. 100 μl per well of Permeabilization Buffer was added, and the cells incubate at room temperature for 30 minutes. The permeabilization buffer was removed and 200 μl per well 2× Blocking Buffer was added and the cells were incubated at room temperature for 2 hours. After removing the Blocking Buffer 100 μl per well of primary antibody to SDH-A or COX-1 was added, and the cells were incubated at 4° C. overnight. The primary antibody solution was removed and cells were washed 3 times with the Wash Buffer. 100 μl per well of AP- and HRP-labelled secondary antibodies was added, and the cells were incubated at room temperature for 1 hour. The cells were then washed 4 times with the Wash Buffer. For SDH-A detection, 100 μl per well AP Development Solution was added, and the cells were incubated at room temperature for 10 minutes. Cells were then read on CLARTO star^plus microplate reader (BMG Labtech) for kinetic readings at 405 nm for 5 minutes. […] The cells were then read on CLARTO star^plus microplate reader (BMG Labtech) for kinetic readings at 600 nm for 15 minutes.
(§4) In the table “A” represents values<1.0 μM; “B” represents values from >1.0 μM to ≤10.0 μM; “C” represents values from >10.0 μM to ≤50.0 μM; “D” represents values from >50.0 μM to ≤100.0 μM; and “E” represents values>100.0 μM.

[2] = Mitochondria toxicity assay with PC3 cells, in-cell ELISA COX-1; conditions: 5 days treatment
Protocol: as §1, §2, §3, §4

PC3 cells = assay: Mitochondria toxicity assay with PC3 cells, cytotoxicity (Cell Titer Glo); conditions: Homo sapiens, PC-3, 120 h, 5 days treatment
Protocol: as §2
For the cytotoxicity assay, the medium from the cell viability plate was removed, 50 μL per well of Cell Titer Glo (Promega, G9683) was added. Then the cells incubated for 30 minutes at room temperature. Luminescence was read by Envision (PerkinElmer 2105).
as §4

SMILES | IC50 (THP1-Dual KO-TREX1 cells) | IC50 [1] | IC50 [2] | IC50 (PC3 cells)
Cc1cn([C@@H]2O[C@@](CO)(CCl)[C@@H](O)[C@H]2F)c(=O)[nH]c1=O [Compound 9, 1-((2R,3R,4R,5R)-5-(chloromethyl)-3-fluoro-4-hydroxy-5-(hydroxymethyl)tetrahydrofuran-2-yl)-5-methylpyrimidine-2,4(1H,3H)-dione] | > 1 µM | > 100 µM | > 100 µM | > 100 µM
Cc1cn([C@H]2C[C@H](O)[C@](CO)(CCl)O2)c(=O)nc1N [Compound 11, 4-amino-1-((2R,4S,5R)-5-(chloromethyl)-4-hydroxy-5-(hydroxymethyl)tetrahydrofuran-2-yl)-5-methylpyrimidin-2(1H)-one] | > 1 µM | > 100 µM | > 100 µM | > 100 µM
C#C[C@@H]1[C@H](n2ccc(N)nc2=O)O[C@@](CO)(CCl)[C@H]1O [Compound 17, 4-amino-1-((2R,3S,4S,5R)-5-(chloromethyl)-3-ethynyl-4-hydroxy-5-(hydroxymethyl)tetrahydrofuran-2-yl)pyrimidin-2(1H)-one] | > 1 µM | – | – | –
Nc1cnn([C@H]2C[C@H](O)[C@](CO)(CCl)O2)c(=O)n1 [Compound 18, 5-amino-2-((2R,4S,5R)-5-(chloromethyl)-4-hydroxy-5-(hydroxymethyl)tetrahydrofuran-2-yl)-1,2,4-triazin-3(2H)-one] | > 1 µM | – | – | –
C#C[C@@H]1[C@H](n2ccc(N)nc2=O)O[C@](C)(CO)[C@H]1O [Compound 20, 4-amino-1-((2R,3S,4S,5R)-3-ethynyl-4-hydroxy-5-(hydroxymethyl)-5-methyltetrahydrofuran-2-yl)pyrimidin-2(1H)-one] | > 1 µM | – | – | –
N#C[C@]1(CO)O[C@@H](n2cnc3c(N)nc(F)nc32)C[C@@H]1O [Compound 26, (2R,3S,5R)-5-(6-amino-2-fluoro-9H-purin-9-yl)-3-hydroxy-2-(hydroxymethyl) tetrahydrofuran-2-carbonitrile] | > 1 µM | > 100 µM | 50 to 100 µM | > 100 µM
C#C[C@]1(CO)O[C@@H](n2cnc3c(N)ncnc32)C[C@@H]1O [Compound 27, (2R,3S,5R)-5-(6-amino-9H-purin-9-yl)-2-ethynyl-2-(hydroxymethyl)tetrahydrofuran-3-ol] | > 1 µM | > 100 µM | > 100 µM | > 100 µM
O=c1nc(NO)ccn1[C@@H]1O[C@@](CO)(CCl)[C@@H](O)[C@H]1F [Compound 28, 1-((2R,3R,4R,5R)-5-(chloromethyl)-3-fluoro-4-hydroxy-5-(hydroxymethyl)tetrahydrofuran-2-yl)-4-(hydroxyamino)pyrimidin-2(1H)-one] | > 1 µM | – | – | –
O=c1ccn([C@@H]2O[C@@](CO)(CCl)[C@@H](O)[C@H]2F)c(=O)[nH]1 [Compound 29, 1-((2R,3R,4R,5R)-5-(chloromethyl)-3-fluoro-4-hydroxy-5-(hydroxymethyl)tetrahydrofuran-2-yl)pyrimidine-2,4(1H,3H)-dione] | > 1 µM | – | – | –
C#C[C@]1(CO)O[C@@H](n2ccc(N)nc2=O)[C@H](F)[C@@H]1O [Compound 32, 4-amino-1-((2R,3R,4R,5R)-5-ethynyl-3-fluoro-4-hydroxy-5-(hydroxymethyl)tetrahydrofuran-2-yl)pyrimidin-2(1H)-one] | > 1 µM | – | – | –
C#C[C@]1(CO)O[C@@H](n2ccc(=O)[nH]c2=O)[C@H](F)[C@@H]1O [Compound 33, 1-((2R,3R,4R,5R)-5-ethynyl-3-fluoro-4-hydroxy-5-(hydroxymethyl)tetrahydro-furan-2-yl)pyrimidine-2,4(1H,3H)-dione] | > 1 µM | – | – | –
O=c1ccn([C@H]2C[C@H](O)[C@](CO)(CCl)O2)c(=O)[nH]1 [Compound 34, 1-((2R,4S,5R)-5-(chloromethyl)-4-hydroxy-5-(hydroxymethyl)tetrahydro-furan-2-yl)pyrimidine-2,4(1H,3H)-dione] | > 1 µM | – | – | –
C#C[C@]1(CO)O[C@@H](n2ccc(N)nc2=O)C[C@@H]1O [Compound 41, 4-amino-1-((2R,4S,5R)-5-ethynyl-4-hydroxy-5-(hydroxymethyl)tetrahydro-furan-2-yl)pyrimidin-2(1H)-one] | > 1 µM | – | – | –

Now from value to molecule, other results behind:

IC50 (THP1-Dual KO-TREX1 cells) | SMILES | IC50 [1] | IC50 [2] | IC50 (PC3 cells)
> 1 µM | CC#C[C@]1(CO)O[C@@H](n2cnc3c(N)nc(F)nc32)C[C@@H]1O [Compound 1, (2R,3S,5R)-5-(6-amino-2-fluoro-9H-purin-9-yl)-2-(hydroxymethyl)-2-(prop-1-yn-1-yl)tetrahydrofuran-3-ol] | – | – | –
> 1 µM | Cc1cn([C@H]2C[C@H](O)[C@](CO)(CCl)O2)c(=O)[nH]c1=O [Compound 4, 1-((2R,4S,5R)-5-(chloromethyl)-4-hydroxy-5-(hydroxymethyl)tetrahydrofuran-2-yl)-5-methylpyrimidine-2,4(1H,3H)-dione] | > 100 µM | > 100 µM | > 100 µM
> 1 µM | C#C[C@]1(CO)O[C@@H](n2cnc3c(N)nc(Cl)nc32)[C@@H](F)[C@@H]1O [Compound 5, (2R,3R,4S,5R)-5-(6-amino-2-chloro-9H-purin-9-yl)-2-ethynyl-4-fluoro-2-(hydroxymethyl)tetrahydrofuran-3-ol] | > 100 µM | 10 to 50 µM | > 100 µM
> 1 µM | O=c1nc(NO)ccn1[C@H]1C[C@H](O)[C@](CO)(CCl)O1 [Compound 6, 1-((2R,4S,5R)-5-(chloromethyl)-4-hydroxy-5-(hydroxymethyl)tetrahydrofuran-2-yl)-4-(hydroxyamino)pyrimidin-2(1H)-one] | – | – | –
> 1 µM | Cc1cn([C@H]2C[C@H](F)[C@](CO)(CCl)O2)c(=O)[nH]c1=O [Compound 7, 1-((2R,4S,5R)-5-(chloromethyl)-4-fluoro-5-(hydroxymethyl)tetrahydrofuran-2-yl)-5-methylpyrimidine-2,4(1H,3H)-dione] | > 100 µM | > 100 µM | > 100 µM
> 1 µM | Nc1nc(F)nc2c1ncn2[C@H]1C[C@H](O)[C@](CO)(CCl)O1 [Compound 8, (2R,3S,5R)-5-(6-amino-2-fluoro-9H-purin-9-yl)-2-(chloromethyl)-2-(hydroxymethyl)tetrahydrofuran-3-ol] | 1 to 10 µM | 1 to 10 µM | 1 to 10 µM
0.05 to 0.1 µM | Nc1nc(=O)n([C@H]2C[C@H](O)[C@](CO)(CF)O2)cc1F [Compound 22, 4-amino-5-fluoro-1-((2R,4S,5R)-5-(fluoromethyl)-4-hydroxy-5-(hydroxymethyl)tetrahydrofuran-2-yl)pyrimidin-2(1H)-one] | > 100 µM | > 100 µM | > 100 µM
